Where two headings read alike, the source gives them in different places.
Experiments:
[1] = molecular target: T1, Human osteoclastic acid phosphatase (OAP) (Homo sapiens, UniProt P13686); assay: Osteoclastic Acid Phosphatase (OAP) inhibition; format: biochemical; conditions: for inhibition at 100 µM: read-out: OAPase % Inh@100 uM
T1 construct: purified from hairy cell leukemia spleen; from tissue; host or cells: human hairy cell leukemia spleen
T1 sequence (P13686 22-325): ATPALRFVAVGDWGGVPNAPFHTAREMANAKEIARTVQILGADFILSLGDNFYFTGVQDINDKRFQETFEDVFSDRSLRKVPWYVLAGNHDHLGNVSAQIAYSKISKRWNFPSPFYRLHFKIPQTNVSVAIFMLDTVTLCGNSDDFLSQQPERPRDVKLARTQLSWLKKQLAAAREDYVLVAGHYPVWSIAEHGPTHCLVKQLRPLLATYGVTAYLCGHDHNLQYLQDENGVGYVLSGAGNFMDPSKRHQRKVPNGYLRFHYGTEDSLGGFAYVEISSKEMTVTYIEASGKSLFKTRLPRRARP
Protocol: Inhibitors of the enzyme are involved with the stimulation of osteoblast cell proliferation in cell culture which is predictive of enhancement of bone mass and bone formation in vivo. Inhibitors of osteoclastic acid phosphatase prevent the resorptive action of osteoclasts and thereby prevent the degradation of bone mass associated with osteoporosis.
The enzyme was stored at -80° C. and was diluted in 50 mM, pH 5.0, sodium acetate buffer prior to use. Test compounds were dissolved in ethanol, DMSO, or water and tested at 100 μM. The assay measures the ability of the enzyme to dephosphorylate methylumbelliferone phosphate to the product, methylumbelliferone, which is fluorescent. The enzyme assay is performed in 50 mM, pH 5.0, sodium acetate buffer as follows: 5 μL of compound was added to 150 μL Of buffered enzyme solution. […] The reaction was performed at room temperature at pH=5.0 and terminated after 20 minutes by the addition of 50 μL of 4N NaOH. The reaction product, methylumbelliferone, was measured by fluorescence determination using a Dynatech Microfluor Fluorescence detector.

[2] = molecular target: T2, human prostatic tyrosyl phosphatase (Homo sapiens, UniProt P15309); assay: biochemical; conditions: 30 minutes at 37° C., pH 5.5, (14C)-phosphotyrosine substrate; read-out: Tyr-Pase IC50
T2 construct: purchased Sigma Chemical Co
T2 sequence (P15309 33-386): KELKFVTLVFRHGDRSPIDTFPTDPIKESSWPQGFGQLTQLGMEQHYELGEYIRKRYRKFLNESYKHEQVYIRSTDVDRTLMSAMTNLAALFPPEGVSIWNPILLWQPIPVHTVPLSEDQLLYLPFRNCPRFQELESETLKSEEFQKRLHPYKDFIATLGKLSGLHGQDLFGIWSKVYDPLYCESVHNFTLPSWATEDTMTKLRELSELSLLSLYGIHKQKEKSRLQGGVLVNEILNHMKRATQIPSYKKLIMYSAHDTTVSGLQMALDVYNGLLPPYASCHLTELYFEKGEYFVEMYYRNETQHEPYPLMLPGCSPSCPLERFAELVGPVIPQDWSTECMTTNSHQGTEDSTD
Protocol: Inhibition of the activity of tyrosyl protein phosphatase was evaluated by incubating an aliquot of purified human prostatic tyrosyl protein acid phosphatase (Sigma Chemical Co.) with radiolabeled phosphotyrosine. The radiolabeled substrate, (^14 C)-phosphotyrosine, is separated from the product, (^14 C)-tyrosine by ion exchange chromatography and the production of radiolabeled tyrosine is quantified. Test compounds are screened at a concentration of one micromolar to 1 nM. The ability of test compounds to inhibit tyrosyl phosphatase was expressed as the % inhibition at the highest concentration of test compound tested and/or as the IC50 in Table 1.
The test compounds were incubated in the presence of tyrosyl acid phosphatase and radiolabeled substrate {(^14 C)-phosphotyrosine, (NEN Dupont Custom Synthesis)} plus cold O-phospho-L-tyrosine{(10 uM) (Sigma Chemical Co.)} in a 0.05 mM sodium acetate buffer (pH 5.5) for 30 minutes at 37° C. […] The incubation mixture was passed over an ion-exchange column {(Ag 1-X8) (Bio-Rad Laboratories)} and washed with 2.5 ml of distilled, deionized water. The total column effluent containing the radiolabeled product (^14 C-tyrosine) was collected and quantified by liquid scintillation spectroscopy. The test compounds IC50 was calculated using a quantal (all-or-none) dose-response calculation.

[3] = pH 5.0, room temperature, 20 minutes, read-out: OAPase IC50
[4] = pH 5.0, room temperature, 20 minutes

IC50 [1, 3] [µM]	IC50 [2] [µM]	inhibition at 100 µM [1, 4] [%]	Compound	IC50 [1] [µM]
1.4	6.9		O=P(O)(O)C(c1ccccc1)C1CCCCC1 (centres unmarked) [Cmpd 4]	
	23.5	6	O=P(O)(O)C(c1ccccc1)C1CCCCCC1 (centres unmarked) [Cmpd 5]	
	37	40	O=P(O)(O)C(c1ccc(-c2ccccc2)cc1)C1CCCCC1 (centres unmarked) [Cmpd 6]	
		16	Cc1cccc(C(C2CCCCC2)P(=O)(O)O)c1 (centres unmarked) [Cmpd 7]	
		16	Cc1ccccc1C(C1CCCCC1)P(=O)(O)O (centres unmarked) [Cmpd 8]	
	13.8	30	O=P(O)(O)C(CCc1ccccc1)c1ccccc1 (centres unmarked) [Cmpd 9]	
	37.8	13	Cc1ccccc1C(c1ccccc1)P(=O)(O)O (centres unmarked) [Cmpd 11]	
	30.7	12	O=P(O)(O)C(c1ccccc1)c1ccccc1Cl (centres unmarked) [Cmpd 13]	
	8.9	9	O=P(O)(O)C(c1ccccc1)c1ccccc1C(F)(F)F (centres unmarked) [Cmpd 14, 2-Trifluoromethylphenyl(phenyl)methylphosphonic Acid]	
	15	31	O=P(O)(O)C(c1ccccc1)c1cccc(Cl)c1 (centres unmarked) [Cmpd 15]	
	67.1	26	O=P(O)(O)C(c1ccccc1)c1cccc(C(F)(F)F)c1 (centres unmarked) [Cmpd 16]	
	17	89	O=[N+]([O-])c1cccc(C(c2ccccc2)P(=O)(O)O)c1 (centres unmarked) [Cmpd 17]	
	36.5	13	Cc1ccc(C)c(C(c2ccccc2)P(=O)(O)O)c1 (centres unmarked) [Cmpd 19, 2,5-Dimethylphenyl(phenyl)methylphosphonic Acid]	
	29.3	28	O=P(O)(O)C(c1cccc(C(F)(F)F)c1)c1cccc(C(F)(F)F)c1 [Cmpd 20, bis(3-Trifluoromethylphenyl)methylphosphonic Acid]	
	44.2	10	O=P(O)(O)C(c1ccccc1)c1ccc(F)cc1 (centres unmarked) [Cmpd 21]	
100	40.8		O=P(O)(O)C(c1ccccc1)c1ccc(C(F)(F)F)cc1 (centres unmarked) [Cmpd 23]	
	36.6	28	COc1ccc(C(c2ccccc2)P(=O)(O)O)cc1 (centres unmarked) [Cmpd 24]	

IC50 [1, 3] [µM]	IC50 [2] [µM]	inhibition at 100 µM [1, 4] [%]	Compound	IC50 [1] [µM]
29	15.7	94	O=P(O)(O)C(Cc1ccc(-c2ccccc2)cc1)c1ccccc1 (centres unmarked) [Cmpd 25]	
	102	20	O=P(O)(O)C(c1ccccc1)c1ccc(Br)cc1 (centres unmarked) [Cmpd 26]	
	142	17	O=P(O)(O)C(c1ccccc1)c1ccc(Cl)cc1 (centres unmarked) [Cmpd 27]	
17	50 to 100	100	O=P(O)(O)C(c1ccc(-c2ccccc2)cc1)c1ccc(-c2ccccc2)cc1 [Cmpd 28]	
	36	25	Cc1cccc(CC(c2cccc(C(F)(F)F)c2)P(=O)(O)O)c1 (centres unmarked) [Cmpd 31]	
	66.2	10	O=P(O)(O)C(Cc1ccc(C(F)(F)F)cc1)c1cccc(C(F)(F)F)c1 (centres unmarked) [Cmpd 32]	
100	9		O=P(O)(O)C(Cc1cccc(C(F)(F)F)c1)c1cccc(C(F)(F)F)c1 (centres unmarked) [Cmpd 35, 3-Trifluoromethylphenyl(3-trifluoromethylbenzyl)methylphosphonic Acid]	
	100	12	O=P(O)(O)C(Cc1ccccc1)c1cccc(C(F)(F)F)c1 (centres unmarked) [Cmpd 36]	
	30.6	25	O=P(O)(O)C(Cc1ccc(F)cc1)c1cccc(C(F)(F)F)c1 (centres unmarked) [Cmpd 37]	
22	35.7	100	O=P(O)(O)C(Cc1ccc(-c2ccccc2)cc1)c1cccc(C(F)(F)F)c1 (centres unmarked) [Cmpd 38]	
	> 1	19	O=P(O)(O)C(Cc1ccccc1)c1ccc2ccccc2c1 (centres unmarked) [Cmpd 40]	
6.3	> 1	100	O=P(O)(O)C(Cc1ccc(-c2ccccc2)cc1)c1cccc2ccccc12 (centres unmarked) [Cmpd 42]	
11.4	> 10	73	Cc1ccc2c(C(CC3CCCCC3)P(=O)(O)O)cccc2c1 (centres unmarked) [Cmpd 43]	
		73	COc1ccc(CC(c2cccc3ccccc23)P(=O)(O)O)cc1 (centres unmarked) [Cmpd 44]	
21	67.2	92	O=P(O)(O)C(Cc1ccccc1)c1cccc2ccccc12 (centres unmarked) [Cmpd 45]	
		75	Cc1ccc(CC(c2cccc3ccccc23)P(=O)(O)O)cc1 (centres unmarked) [Cmpd 46]	
		80	O=[N+]([O-])c1ccc(CC(c2cccc3ccccc23)P(=O)(O)O)cc1 (centres unmarked) [Cmpd 47]	

Compound	IC50 [1, 3] [µM]	IC50 [2] [µM]	inhibition at 100 µM [1, 4] [%]	IC50 [1] [µM]
Cc1cccc(C(c2ccccc2)P(=O)(O)O)c1 (centres unmarked) [Cmpd 18]		14	4	
O=P(O)(O)C(Cc1ccc(Cl)cc1)c1cccc2ccccc12 (centres unmarked) [Cmpd 48, 4-Chlorobenzyl(1-naphthyl)methylphosphonic acid]		56.9	94	21
O=C(c1ccccc1)C(C(=O)c1ccccc1)(c1cccc2ccccc12)P(=O)(O)O [Cmpd 55, bis(Benzoyl)(1-naphthyl)methylphosphonic Acid]		> 1	96	1.4

Reference: patent US5508273A, “Substituted phosphonic acids and derivatives useful in treating bone wasting diseases” (priority 1993, dated 1996)
